Like-named read-outs stand apart in the source and are kept apart here.

In this test the test system is SKBR-3 cell line (human breast cancer). Description: 2D-cytotoxicity assay of free payloads (Cell titer glow, 72 hours). The class given is cell-based. The protocol: Protocol: Day 1:5,000 cells/well were plated and incubated at 37° C. overnight, unless otherwise noted.
Day 2: Payload/vehicle control dilutions were made in respective media and added to cells. Volume added: 50 μL to each well. Starting treatment concentration was 0.1 mM for free payloads/10% for vehicle control and then diluted 10-fold down for a total of 11 treatment dilutions. Each concentration was analyzed in triplicates. Media-only wells was used as a control to calculate percent viability.
Day 5: Cell titer glow reagent (volume: 50 μL) was added to each well, the plate was shaken for 5 mins and the luminescence was recorded.
Drug Treatment Time: 72 hours.
Data Analysis: Percent viability was calculated by dividing the luminescence signal obtained for each treated well by the untreated well (media-only control) and multiplying by 100. Data was next transformed using X=Log (x) and then analyzed with nonlinear regression (curve fit), Dose Response inhibition−log (inhibitor) vs response (3 parameters) using PRISM software to determine the IC50 value.

Where [1] appears, read: Homo sapiens, SK-BR-3, SKBR-3, 2000 cells/well, read-out: IC50.
Setting [2] is: Homo sapiens, SK-BR-3, SKBR-3, 5,000 cells/well, read-out: IC50.
The mark [3] stands for this setting: Homo sapiens, SK-BR-3, 72 h, SKBR-3, 5,000 cells/well.
Setting [4] is: SKBR-3, 5,000 cells/well, read-out: IC50.

In general, IC50 refers to the point on the concentration scale where inhibition reaches its midpoint. Take `CC[C@@]1(O)C(=O)OCc2c1cc1n(c2=O)Cc2c-1nc1cc(F)c(C)c3c1c2[C@H](OCNC(=O)CN)CC3` (single isomer, unassigned) [E-35a*]: under setting [1], the IC50 was found to be 28.1 nM.

With `CC[C@@]1(O)C(=O)OCc2c1cc1n(c2=O)Cc2c-1nc1cc(F)c(C)c3c1c2[C@@H](OCNC(=O)CN)CC3` (single isomer, unassigned) [E-35b*], the IC50 under setting [1] was 58.8 nM.

`CC[C@@]1(O)C(=O)OCc2c1cc1n(c2=O)Cc2c-1nc1cc(F)c(C)c3c1c2C(O)CC3` (some centres unmarked) [Compound E-1]: under setting [2], the IC50 is 3.27 nM.

Turning to `CC[C@@]1(O)C(=O)OCc2c1cc1n(c2=O)Cc2c-1nc1cc(F)c(C)c3c1c2C(=O)CC3` [Compound E-2], the IC50 is 27.7 nM (Homo sapiens, SK-BR-3, 72 h, SKBR-3, 5,000 cells/well, payload in ACN:Water) and 73.2 nM (Homo sapiens, SK-BR-3, 72 h, SKBR-3, 5,000 cells/well, payload in DMSO).

On to `CCC1(O)C(=O)OCc2c1cc1n(c2=O)Cc2c-1nc1cc(F)c(C)c3c1c2CCC3` (centres unmarked) [Compound E-10], for which inhibition under setting [3] was half-maximal at 2.7 nM (IC50).

Compound `CC[C@@]1(O)C(=O)OCc2c1cc1n(c2=O)Cc2c-1nc1cc(F)c(C)c3c1c2CCC3` [Compound E-18] registered an IC50 under setting [3] of 1.1 nM.

On to `CC[C@@]1(O)C(=O)OCc2c1cc1n(c2=O)C(O)c2c-1nc1cc(F)c(C)c3c1c2CCC3` (some centres unmarked) [Compound E-19], for which the half-maximal inhibitory concentration (IC50) under setting [3] was found to be 75.7 nM.

For the compound `C=CCC1c2c(nc3cc(F)c(C)c4c3c2CCC4)-c2cc3c(c(=O)n21)COC(=O)[C@]3(O)CC` (some centres unmarked) [Compound E-21], the IC50 under setting [2] worked out at 415 nM.

On to `C#CCOC1c2c(nc3cc(F)c(C)c4c3c2CCC4)-c2cc3c(c(=O)n21)COC(=O)[C@]3(O)CC` (some centres unmarked) [Compound E-22], for which the IC50 under setting [2] is 76.3 nM.

As for `C=CCC1(CC=C)c2c(nc3cc(F)c(C)c4c3c2CCC4)-c2cc3c(c(=O)n21)COC(=O)[C@]3(O)CC` [Compound E-23], under setting [2], the IC50 turned out to be 3580 nM.

Turning to `CC[C@@]1(O)C(=O)OCc2c1cc1n(c2=O)C2(CC=CC2)c2c-1nc1cc(F)c(C)c3c1c2CCC3` [Compound E-24], the IC50 under setting [2] was found to be 517 nM.

In the case of `CC[C@@]1(O)C(=O)OCc2c1cc1n(c2=O)C(C)(C)c2c-1nc1cc(F)c(C)c3c1c2CCC3` [Compound E-25], under setting [2], the concentration for half-maximal inhibition (IC50) was 3040 nM.

Turning to `CC[C@@]1(O)C(=O)OCc2c1cc1n(c2=O)Cc2c-1nc1cc(F)c(C)c3c1c2C(=NO)CC3` [Compound E-29], the concentration for half-maximal inhibition (IC50) under setting [3] stood at 15.5 nM.

`CC[C@@]1(O)C(=O)OCc2c1cc1n(c2=O)Cc2c-1nc1cc(F)c(C)c3c1c2C(OCNC(=O)CN)CC3` (some centres unmarked) [Compound E-35] had an IC50 under setting [3] of 7.68 nM.

As for `CC[C@@]1(O)C(=O)OCc2c1cc1n(c2=O)Cc2c-1nc1c(Cl)c(F)c(C)c3c1c2CCC3` [Compound E-38], the IC50 under setting [2] is 35 nM.

Where the note is “Homo sapiens, SK-BR-3, 72 h, SKBR-3, 1000 cells/well”, `CC[C@@]1(O)C(=O)OCc2c1cc1n(c2=O)Cc2c-1nc1cc(F)c(C)c3c1c2C(OCNC(=O)CNC)CC3` (some centres unmarked) [Compound E-42] displayed an IC50 of 12 nM.

Consider `CC[C@@]1(OC(=O)CCCN)C(=O)OCc2c1cc1n(c2=O)Cc2c-1nc1cc(F)c(C)c3c1c2CCC3` [Compound E-43], for which the IC50 under setting [1] is 32.5 nM.

For `CC[C@@]1(O)C(=O)OCc2c1cc1n(c2=O)Cc2c-1nc1cc(F)c(C)c3c1c2[C@@H](NC(=O)CO)CC3` [Exatecan Glycolamide, reference compound], under setting [4], the concentration for half-maximal inhibition (IC50) came out at 5.06 nM.

With Exatecan Mesylate [reference compound], under setting [4], the IC50 was 2.45 nM.

Source of the values: patent publication US20260022127A1, “HEXACYCLIC TOPOISOMERASE INHIBITORS HAVING CYTOTOXIC ACTIVITY ON CANCER CELLS” (priority 2022, published 2026).
